Values of other authors, collected in patent US8552052B2, “Use of diindolylmethane-related indoles for the treatment and prevention of respiratory syncytial virus associated conditions” (BioResponse, L.L.C., priority 2004, dated 2013).

Tested on: RSV
Conditions: monthly intramuscular injections; cited from earlier work

## Palivizumab: IgG1 monoclonal antibody that selectively binds to the RSV surface glycoprotein F
  reduction of the rate of hospitalization of at-risk infants: about 55%
